Laboratory results taken from ChEMBL document CHEMBL3352173, “Optimization of pyrrolamide topoisomerase II inhibitors toward identification of an antibacterial clinical candidate (AZD5099)” (J Med Chem, 2014).
pEC50, pIC50: −log10 of the molar value. In brackets after ≈: the same amount, converted by molar mass.

Experiments:
Staphylococcus aureus [1] = assay: Ratio of MIC for 2 times drug resistance selected Staphylococcus aureus ARC2398-1F to MIC for Staphylococcus aureus ARC2398; assay type: functional
Enterococcus faecium [2] = assay: Antimicrobial activity against Enterococcus faecium by broth microdilution/CLSI method; assay type: functional
[3] = Percentage unbound in mouse plasma; assay type: ADME, cell-free
[4] = Percentage unbound in dog plasma; assay type: ADME, cell-free, Canis lupus familiaris
[5] = target: T1, ATP-binding cassette sub-family C member 2 (Rattus norvegicus, UniProt Q63120); assay: Inhibition of ATPase activity of rat Mrp2 assessed as inorganic phosphate
T1 sequence (Q63120 whole entry): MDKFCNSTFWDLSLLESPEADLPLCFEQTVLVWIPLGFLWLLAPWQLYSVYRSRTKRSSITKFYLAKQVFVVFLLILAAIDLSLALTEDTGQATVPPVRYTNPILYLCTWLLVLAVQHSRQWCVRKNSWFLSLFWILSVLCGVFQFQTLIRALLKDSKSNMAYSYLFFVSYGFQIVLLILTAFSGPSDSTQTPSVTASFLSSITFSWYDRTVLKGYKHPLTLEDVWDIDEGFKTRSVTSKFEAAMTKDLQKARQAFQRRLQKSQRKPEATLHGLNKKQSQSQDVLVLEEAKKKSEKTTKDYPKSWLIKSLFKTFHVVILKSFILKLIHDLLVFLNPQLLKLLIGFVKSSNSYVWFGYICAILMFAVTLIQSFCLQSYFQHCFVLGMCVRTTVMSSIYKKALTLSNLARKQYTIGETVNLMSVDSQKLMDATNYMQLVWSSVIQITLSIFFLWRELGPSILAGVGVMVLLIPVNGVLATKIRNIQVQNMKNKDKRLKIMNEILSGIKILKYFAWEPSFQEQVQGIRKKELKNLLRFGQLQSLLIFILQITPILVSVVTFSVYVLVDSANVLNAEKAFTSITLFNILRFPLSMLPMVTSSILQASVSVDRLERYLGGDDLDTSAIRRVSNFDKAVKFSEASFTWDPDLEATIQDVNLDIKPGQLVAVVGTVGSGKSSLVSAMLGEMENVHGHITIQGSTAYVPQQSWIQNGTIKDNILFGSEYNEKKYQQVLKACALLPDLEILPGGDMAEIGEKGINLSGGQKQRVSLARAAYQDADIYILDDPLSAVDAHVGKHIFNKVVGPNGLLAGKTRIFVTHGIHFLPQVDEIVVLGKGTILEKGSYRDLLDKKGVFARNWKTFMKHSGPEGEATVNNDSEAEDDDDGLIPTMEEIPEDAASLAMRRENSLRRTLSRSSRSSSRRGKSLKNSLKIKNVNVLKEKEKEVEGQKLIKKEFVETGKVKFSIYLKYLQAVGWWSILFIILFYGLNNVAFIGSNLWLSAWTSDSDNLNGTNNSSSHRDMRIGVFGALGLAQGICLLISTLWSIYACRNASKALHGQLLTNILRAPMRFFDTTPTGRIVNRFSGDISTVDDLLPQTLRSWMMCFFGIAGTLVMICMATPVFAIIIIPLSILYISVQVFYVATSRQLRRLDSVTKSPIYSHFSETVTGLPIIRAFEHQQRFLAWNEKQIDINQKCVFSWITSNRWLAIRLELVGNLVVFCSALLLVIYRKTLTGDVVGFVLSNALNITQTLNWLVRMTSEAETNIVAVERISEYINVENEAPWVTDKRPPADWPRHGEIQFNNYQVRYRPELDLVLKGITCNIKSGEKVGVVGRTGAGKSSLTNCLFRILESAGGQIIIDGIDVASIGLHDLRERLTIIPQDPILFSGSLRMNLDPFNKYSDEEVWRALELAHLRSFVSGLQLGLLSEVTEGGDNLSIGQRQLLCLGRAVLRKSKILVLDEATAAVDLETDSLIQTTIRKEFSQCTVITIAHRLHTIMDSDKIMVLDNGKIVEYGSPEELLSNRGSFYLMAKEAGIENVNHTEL

Enterococcus faecium [6] = assay: Antimicrobial activity against vancomycin-resistant Enterococcus faecium by broth microdilution/CLSI method; assay type: functional
[7] = Bioavailability in dog at 10 mg/kg, iv; assay type: ADME, organism-based, Canis lupus familiaris; settings: plasma
[8] = Clearance in TR-negative Wistar rat at 10 mg/kg, iv; assay type: ADME, organism-based; parameters: dose 10 mg/kg, route intravenous; settings: in vivo
Mus musculus = assay: fAUC in methicillin-sensitive Staphylococcus aureus ARC516 infected in neutropenic CD1 mouse thigh model at 30 mg/kg, ip q24; assay type: ADME, organism-based; parameters: dose 30 mg/kg, route intraperitoneal; settings: in vivo
Staphylococcus aureus [9] = assay: Antimicrobial activity against 2 times drug resistance selected Staphylococcus aureus ARC2398-2F by broth microdilution/CLSI method; assay type: functional
Cytochrome P450 2C8 = target: T2, Cytochrome P450 2C8 (Homo sapiens, UniProt P10632); assay: Inhibition of human CYP2C8 at 50 uM; assay type: ADME
T2 sequence (P10632 whole entry): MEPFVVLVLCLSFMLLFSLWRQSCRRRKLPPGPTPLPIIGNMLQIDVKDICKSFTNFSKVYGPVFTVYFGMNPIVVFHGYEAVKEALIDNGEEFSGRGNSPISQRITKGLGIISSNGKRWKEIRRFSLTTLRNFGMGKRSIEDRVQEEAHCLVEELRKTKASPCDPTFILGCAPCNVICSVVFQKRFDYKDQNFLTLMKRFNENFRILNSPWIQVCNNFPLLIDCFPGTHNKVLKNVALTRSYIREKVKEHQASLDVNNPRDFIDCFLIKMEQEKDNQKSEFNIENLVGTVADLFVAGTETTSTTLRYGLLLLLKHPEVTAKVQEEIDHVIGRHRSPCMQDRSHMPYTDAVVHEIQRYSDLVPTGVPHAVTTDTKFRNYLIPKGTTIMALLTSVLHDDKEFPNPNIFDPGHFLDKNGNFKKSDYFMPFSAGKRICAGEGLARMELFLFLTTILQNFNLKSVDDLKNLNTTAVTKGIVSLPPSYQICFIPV

Staphylococcus aureus [10] = assay: Antimicrobial activity against Staphylococcus aureus ARC2398 by broth microdilution/CLSI method; assay type: functional
Escherichia coli = assay: Antimicrobial activity against Escherichia coli tolC- by broth microdilution/CLSI method; assay type: functional; settings: Escherichia coli; read-out: MIC
Staphylococcus aureus [11] = assay: Ratio of MIC for 2 times drug resistance selected Staphylococcus aureus ARC2398-2F to MIC for Staphylococcus aureus ARC2398; assay type: functional
[12] = target: T1, ATP-binding cassette sub-family C member 2; assay: Stimulation of ATPase activity of rat Mrp2 assessed as inorganic phosphate
[13] = Clearance in Wistar rat at 10 mg/kg, iv; assay type: ADME, organism-based; parameters: dose 10 mg/kg, route intravenous; settings: in vivo
Staphylococcus aureus [14] = assay: Antimicrobial activity against methicillin-resistant Staphylococcus aureus by broth microdilution/CLSI method; assay type: functional
[15] = AUC in methicillin-sensitive Staphylococcus aureus ARC516 infected in neutropenic CD1 mouse thigh model at 30 mg/kg, ip q24; assay type: ADME, organism-based; parameters: dose 30 mg/kg, route intraperitoneal; settings: in vivo
[16] = Selectivity ratio for human topoisomerase 2 alpha to bacterial type 2 topoisomerase
[17] = Percentage unbound in human plasma; assay type: ADME, cell-free
[18] = Clearance in dog at 10 mg/kg, iv; assay type: ADME, organism-based, Canis lupus familiaris; parameters: dose 10 mg/kg, route intravenous; settings: plasma
Staphylococcus aureus [19] = assay: Antimicrobial activity against Staphylococcus aureus by broth microdilution/CLSI method; assay type: functional
Streptococcus pyogenes = assay: Antimicrobial activity against Streptococcus pyogenes by broth microdilution/CLSI method; assay type: functional
Cytochrome P450 2C19 = Cytochrome P450 2C19 (Homo sapiens, UniProt P33261); assay: Inhibition of human CYP2C19 at 50 uM; assay type: ADME
Chain of Cytochrome P450 2C19 (P33261 whole entry): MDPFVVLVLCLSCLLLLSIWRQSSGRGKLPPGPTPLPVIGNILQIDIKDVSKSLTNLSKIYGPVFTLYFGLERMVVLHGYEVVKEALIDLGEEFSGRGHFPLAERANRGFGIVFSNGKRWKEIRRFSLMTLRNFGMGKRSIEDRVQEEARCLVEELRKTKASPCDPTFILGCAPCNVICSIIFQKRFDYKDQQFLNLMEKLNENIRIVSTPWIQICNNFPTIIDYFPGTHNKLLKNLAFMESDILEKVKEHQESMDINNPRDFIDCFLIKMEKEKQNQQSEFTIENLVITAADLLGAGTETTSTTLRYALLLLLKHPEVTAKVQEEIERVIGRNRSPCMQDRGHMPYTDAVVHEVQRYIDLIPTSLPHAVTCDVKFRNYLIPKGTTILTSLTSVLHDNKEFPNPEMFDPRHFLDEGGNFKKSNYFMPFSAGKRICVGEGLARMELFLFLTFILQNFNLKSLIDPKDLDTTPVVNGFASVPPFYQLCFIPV

Haemophilus influenzae = assay: Antimicrobial activity against amoxicillin-resistant Haemophilus influenzae by broth microdilution/CLSI method; assay type: functional
[20] = Octanol-phosphate buffer distribution coefficient, log D of the compound at pH 7.4 by shake flask method; assay type: physicochemical
Cytochrome P450 2C9 = Cytochrome P450 2C9 (Homo sapiens, UniProt P11712); assay: Inhibition of human CYP2C9 at 50 uM; assay type: ADME
Chain of Cytochrome P450 2C9 (P11712 whole entry): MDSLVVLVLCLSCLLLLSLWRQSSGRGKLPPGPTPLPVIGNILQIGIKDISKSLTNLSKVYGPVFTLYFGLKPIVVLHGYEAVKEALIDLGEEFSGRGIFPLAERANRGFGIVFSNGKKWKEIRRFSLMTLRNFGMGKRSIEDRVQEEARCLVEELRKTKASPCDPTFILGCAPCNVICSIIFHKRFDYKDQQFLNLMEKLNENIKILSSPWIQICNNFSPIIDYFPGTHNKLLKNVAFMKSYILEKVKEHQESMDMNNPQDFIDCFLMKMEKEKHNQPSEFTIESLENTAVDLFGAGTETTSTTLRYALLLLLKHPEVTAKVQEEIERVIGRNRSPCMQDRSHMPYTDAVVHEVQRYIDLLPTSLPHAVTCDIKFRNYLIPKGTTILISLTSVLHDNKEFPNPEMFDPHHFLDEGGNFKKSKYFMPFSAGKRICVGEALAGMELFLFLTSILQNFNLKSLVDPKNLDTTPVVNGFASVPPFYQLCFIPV

COC[C@H](C)NC(=O)c1nc(N2CC[C@@H](NC(=O)c3[nH]c(C)c(Cl)c3Cl)[C@@H](OC)C2)sc1C(=O)O [AZD-5099]
Ratio (Staphylococcus aureus [1]): 16
MIC90 (Enterococcus faecium [2]): 0.06 µg/mL (≈ 0.109 µM)
fraction unbound [3]: 0.047
fraction unbound [4]: 0.062
pIC50 [5]: 3.70
MIC90 (Enterococcus faecium [6]): 0.06 µg/mL (≈ 0.109 µM)
bioavailability [7]: 96%
clearance [8]: 2.1 mL/min/kg
fAUC (Mus musculus): 5.45 µg·h/mL
MIC (Staphylococcus aureus [9]): 0.5 µg/mL (≈ 0.912 µM)
inhibition (INH) (Cytochrome P450 2C8): Not Active
MIC (Staphylococcus aureus [10]): 0.03 µg/mL (≈ 0.0547 µM)
MIC (Escherichia coli): 0.94 µg/mL (≈ 1.71 µM)
Ratio (Staphylococcus aureus [11]): 16
pEC50 [12]: < 3.70
clearance [13]: 4 mL/min/kg
MIC90 (Staphylococcus aureus [14]): 0.06 µg/mL (≈ 0.109 µM)
AUC [15]: 116 µg·h/mL
Selectivity ratio [16]: 10000
fraction unbound [17]: 0.025
clearance [18]: 0.64 mL/min/kg
MIC90 (Staphylococcus aureus [19]): 0.06 µg/mL (≈ 0.109 µM)
MIC (Streptococcus pyogenes): 0.014 µg/mL (≈ 0.0255 µM)
inhibition (INH) (Cytochrome P450 2C19): Not Active
MIC90 (Haemophilus influenzae): 0.25 µg/mL (≈ 0.456 µM)
logD [20]: 1.4
inhibition (INH) (Cytochrome P450 2C9): Not Active
